We go through six compounds from patent publication US5428158A, “2-substituted indane-2-mercaptoacetylamide derivatives useful as inhibitors of enkephalinase and ace” (Merrell Dow Pharmaceuticals Inc., priority 1993, dated 1995).

The subject of assay [1] is myointimal proliferation. The settings on record: after vascular injury; Davis et al. 1992; cited from earlier work.
The target in assay [2] is ACE (Homo sapiens, UniProt P12821). As to the kind of experiment: ACE inhibition, spectrophotometric substrate. The format is biochemical. From the text:
The enzymatic activity of ACE is monitored using the spectrophotometric substrate described by Holmquist et al. [Anal. Biochem. 95, 540-548 (1979)]and the buffer system described by Ryan [Methods of Enzymatic Analysis, 3rd ed., H. U. Bergmeyer, editor; vol. V, Verlag Chemie, Weinheim, 1983, pp. 20-34].
(§1) The results of the analysis of enzymatic activity as described in Table 1 indicate that the compounds of the present invention are inhibitors of enkephalinase as well as inhibitors of ACE.

Assay [3] deals with T1, Enkephalinase (Rattus norvegicus, UniProt P07861).
T1 construct: Enkephalinase is partially purified from rat kidney; from tissue; host or cells: rat kidney (microvilli fraction; Triton X-100 extract or proteolytic solubilisation, then Mono Q FPLC)
T1 sequence (P07861 1-750): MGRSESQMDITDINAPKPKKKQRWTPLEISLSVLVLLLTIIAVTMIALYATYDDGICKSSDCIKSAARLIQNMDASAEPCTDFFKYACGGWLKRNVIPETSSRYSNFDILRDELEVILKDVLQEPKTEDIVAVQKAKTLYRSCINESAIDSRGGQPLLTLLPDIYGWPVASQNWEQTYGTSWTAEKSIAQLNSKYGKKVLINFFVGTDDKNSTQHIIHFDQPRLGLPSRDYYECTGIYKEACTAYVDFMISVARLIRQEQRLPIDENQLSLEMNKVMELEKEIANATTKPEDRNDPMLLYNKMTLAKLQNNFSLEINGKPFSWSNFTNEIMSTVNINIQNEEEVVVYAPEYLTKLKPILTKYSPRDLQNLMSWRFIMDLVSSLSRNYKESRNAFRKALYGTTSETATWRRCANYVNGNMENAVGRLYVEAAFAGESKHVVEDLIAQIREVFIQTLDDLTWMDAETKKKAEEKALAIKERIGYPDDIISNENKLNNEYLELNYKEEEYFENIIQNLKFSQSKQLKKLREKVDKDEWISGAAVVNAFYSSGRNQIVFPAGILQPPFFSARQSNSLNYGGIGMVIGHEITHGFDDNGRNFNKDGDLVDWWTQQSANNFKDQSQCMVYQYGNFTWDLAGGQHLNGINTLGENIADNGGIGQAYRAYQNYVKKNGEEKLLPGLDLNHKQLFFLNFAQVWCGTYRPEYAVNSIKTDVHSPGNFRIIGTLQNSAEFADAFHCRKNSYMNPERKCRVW
As to the kind of experiment: Enkephalinase inhibition, fluorometric, substrate dansyl-D-AlaGly(p-nitro)PheGly. The format is biochemical. The settings on record: 50 mM HEPES, pH 7.4, 25° C., 12 μM substrate; read-out: ENK, Ki.
From the text: Enkephalinase is partially purified from rat kidney. The enzyme is extracted from the microvilli fraction by using Triton X-100 according to the method of Malfroy and Schwartz [J. Biol. Chem. 259, 14365-14370 (1984)] or by using a proteolytic treatment according to the method of Almenoff and Orlowski [Biochem. 22 590-599 (1983)]. The enzyme is further purified by anio exchange chromatography (Mono Q™ column, Pharmacia) using a Pharmacia FPLC system. The enzyme activity may be measured by the fluorometric methods of Florentin et al. [Anal. Biochem. 141, 62-69 (1984 ) ] or of Almenoff and Orlowski [J. Neurochemistry 42,151-157 (1984)]. […] The substrate (and inhibitor) is added from a concentrated stock solution in DMSO (up to 0.1 mL DMSO final volume). The enzyme in a small volume (approximately 0.1 μg of FPLC purified protein) is added to initiate the reaction and the rate of fluorecense increase is recorded continuously using a fluorometer (excitation at 339 nm, emission at 562 nm).
as §1

Sequence of ACE (P12821 30-1306, species assumed): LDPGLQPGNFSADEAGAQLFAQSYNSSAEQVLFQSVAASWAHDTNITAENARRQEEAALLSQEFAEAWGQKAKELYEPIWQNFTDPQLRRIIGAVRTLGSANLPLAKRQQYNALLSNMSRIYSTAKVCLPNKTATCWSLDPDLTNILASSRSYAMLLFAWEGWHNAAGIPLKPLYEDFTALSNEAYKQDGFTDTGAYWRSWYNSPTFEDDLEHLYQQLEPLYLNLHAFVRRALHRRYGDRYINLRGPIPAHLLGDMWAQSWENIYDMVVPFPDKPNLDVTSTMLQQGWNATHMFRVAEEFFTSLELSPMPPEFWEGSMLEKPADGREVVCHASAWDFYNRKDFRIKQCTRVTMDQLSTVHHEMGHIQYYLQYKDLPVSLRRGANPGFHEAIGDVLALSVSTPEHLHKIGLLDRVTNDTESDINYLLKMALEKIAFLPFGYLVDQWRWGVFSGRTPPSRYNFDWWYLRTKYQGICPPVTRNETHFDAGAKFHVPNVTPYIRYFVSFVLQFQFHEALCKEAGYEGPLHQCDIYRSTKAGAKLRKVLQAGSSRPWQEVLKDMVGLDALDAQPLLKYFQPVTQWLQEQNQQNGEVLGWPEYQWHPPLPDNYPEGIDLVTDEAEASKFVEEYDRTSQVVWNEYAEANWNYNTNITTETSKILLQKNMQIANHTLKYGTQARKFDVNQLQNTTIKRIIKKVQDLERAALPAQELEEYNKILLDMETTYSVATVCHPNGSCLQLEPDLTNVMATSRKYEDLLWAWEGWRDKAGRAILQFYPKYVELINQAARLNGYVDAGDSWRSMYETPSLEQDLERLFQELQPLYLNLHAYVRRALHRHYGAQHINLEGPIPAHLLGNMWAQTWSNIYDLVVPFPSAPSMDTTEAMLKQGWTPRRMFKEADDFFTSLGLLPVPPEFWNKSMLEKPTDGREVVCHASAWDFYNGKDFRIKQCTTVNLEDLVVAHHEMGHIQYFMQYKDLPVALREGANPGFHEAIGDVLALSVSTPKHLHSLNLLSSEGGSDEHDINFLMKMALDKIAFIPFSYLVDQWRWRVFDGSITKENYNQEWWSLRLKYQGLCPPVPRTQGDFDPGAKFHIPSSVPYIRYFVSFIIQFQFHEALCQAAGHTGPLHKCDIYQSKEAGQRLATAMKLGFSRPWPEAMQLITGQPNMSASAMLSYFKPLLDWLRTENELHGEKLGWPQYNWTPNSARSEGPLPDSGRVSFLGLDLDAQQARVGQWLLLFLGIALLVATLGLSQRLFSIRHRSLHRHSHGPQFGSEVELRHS

For the compound `CCOC(=O)[C@H](CCSC)NC(=O)[C@@H](CSC(C)=O)Cc1ccccc1C` [SCH42495], the myointimal proliferation result in assay [1] is recorded as “prevent myointimal proliferation after vascular injury”.
With `O=C(O)[C@@H]1CCC[C@@H]2c3ccccc3C[C@H](NC(=O)C3(S)Cc4ccccc4C3)C(=O)N21` [102,708, [4S-[4α, 7α(R*), 12bβ]]-7-[(2-Thio-2-oxoindan)methylamino]-1,2,3,4,6,7,8,12b-octahydro-6-oxopyrido[2,1-a][2]benzazepine-4-carboxylic acid], the Ki (usually the equilibrium dissociation constant of an inhibitor or competing ligand from its target) is less than 45 nM in assay [2] and less than 0.2 nM in assay [3].
With `O=C(O)[C@@H]1CCC[C@@H]2c3ccccc3C[C@H](NC(=O)C3(CS)Cc4ccccc4C3)C(=O)N21` [100,346, [4S-[4α, 7α(R*), 12bβ]]-7-[(2-Mercaptomethyl-2-oxoindan)methylamino]-1,2,3,4,6,7,8,12b-octahydro-6-oxopyrido[2,1-a][2]benzazepine-4-carboxylic acid], the inhibition constant Ki is less than 500 nM in assay [2] and less than 0.2 nM in assay [3].
On the same counts, the results for `O=C(O)[C@@H]1CCC[C@@H]2c3ccccc3C[C@H](NC(=O)C3(CCS)Cc4ccccc4C3)C(=O)N21` [100,273, [4S-[4α, 7α(R*), 12bβ]]-7-[(2-(2-mercaptoethyl)-2-oxoindan)methylamino]1,2,3,4,6,7,8,12b-octahydro-6-oxopyrido[2,1-a][2]benzazepine-4-carboxylic acid] are more than 250 nM and 0.8 nM.
Regarding `O=C(O)[C@@H]1CCC[C@@H]2c3ccccc3C[C@H](NC(=O)C3(S)CCCC3)C(=O)N21` [102,769, [4S-[4α, 7α(R*), 12bβ]]-7-[(1-Thio-1-oxocyclopentane)methylamino]-1,2,3,4,6,7,8,12b-octahydro-6-oxopyrido[2,1-a][2]benzazepine-4-carboxylic acid], the Ki in assay [2] was less than 7 nM; in assay [3] it was less than 0.2 nM.
The corresponding values for `CC(C)(S)C(=O)N[C@H]1Cc2ccccc2[C@H]2CCC[C@@H](C(=O)O)N2C1=O` [101,069, [4S-[4α, 7α(R*), 12bβ]]-7-[(2-Thio-1-oxo-2-methyl)-2-propylamino]-1,2,3,4,6,7,8,12b-octahydro-6-oxopyrido[2,1-a][2]benzazepine-4-carboxylic acid] are more than 7 nM and 4 nM.
